The values that follow come from patent US12458647B2, “Macrocyclic derivative and use thereof” (Guangzhou Joyo Pharmatech Co., Ltd., priority 2022, dated 2025).

The subject of this test is p-ERK level in GP2D cells. The experiment in a line: Detection of p-ERK level in GP2D cells (HTRF). In kind it is cell-based. The settings on record: 3 hours incubation, read-out: GP2D pERK IC50. An excerpt: GP2D cell line (DMEM+10% FBS+1% penicillin/streptomycin) was purchased from ECACC; RPMI-1640 medium was purchased from Gibco; fetal bovine serum was purchased from Hyclone; Advanced Phospho-ERK1/2(THR202/TYR204) KIT was purchased from Bioauxilium-Advanced Phospho; ERK1/2(THR202/TYR204) KIT was composed of: Advanced PhosphoERK1/2Eu Cryptate antibody, Advanced PhosphoERK1/2 d2 antibody. Blocking reagent (stock solution 100×), Lysis buffer #1 (stock solution 4×), Detection buffer (ready-to-use), with a storage temperature of ≤−16° C. for all.
(1) The cells were seeded in a white-bottomed 384-well cell culture plate, 8 μL of cell suspension per well, each well containing 7,500 cells. The cell plate was placed in a carbon dioxide incubator and incubated overnight at 37° C.;
(2) The test compound was diluted with 100% DMSO to 3 mM as the first concentration, and then diluted with a pipette to 10 concentrations of 3,000, 1,000, 300, 100, 30, 10, 3, 1, 0.3 and 0.1 μM 2 μL of the compound was taken and added to 198 μL of cell starvation medium, mixed well, 15 μL of compound solution was taken and added to 35 μL of cell starvation medium and mixed well. […]
(5) After incubation, a multilabel plate reader was used to read the HTRF excitation: 320 nm, emission: 615 nm, and 665 nm. […]

Like-named read-outs stand apart in the source and are kept apart here.

What is called IC50 is the point on the concentration scale where inhibition reaches its midpoint.

Consider `CCn1c(-c2cc(N3CCN(C)CC3)cnc2C(C)OC)c2c3cc(ccc31)-c1csc(n1)CC(NC(=O)C1CC1C(F)F)C(=O)N1NC(C(=O)OCC(C)(C)C2)C2CC1C2` (single isomer, unassigned) [Trifluoroacetate of Compound 8A], for which the IC50 was 0.8 nM.

In the case of `[2H]C([2H])([2H])N1CCN(c2cnc([C@H](C)OC)c(-c3c4c5cc(ccc5n3CC)-c3csc(n3)C[C@H](NC(=O)[C@H]3[C@H](C)[C@@H]3C)C(=O)N3N[C@H](C(=O)OCC(C)(C)C4)C4CC3C4)c2)CC1` [Trifluoroacetate of Compound 12A], the IC50 (GP2d) was found to be 0.2 nM.
